Results reported in ChEMBL document CHEMBL3046836, “Laboratory assays of select candidate insecticides for control of Dendroctonus ponderosae” (2011).
In brackets after ≈: the same amount, converted by molar mass. Several values for one entry are separate records, joined by “and”; a condition that tells them apart may be missing. Equal values may be shown once. Activity calls are given as the source filed them. The calls are words filed in the database; no cut-off is given here.

What was measured:
Assay type in all cases: functional
Dendroctonus ponderosae [1] = experiment: Insecticidal activity against adult female Dendroctonus ponderosae assessed as mortality after 24 hr by filter paper assay
Dendroctonus ponderosae [2] = experiment: Insecticidal activity against adult male Dendroctonus ponderosae assessed as mortality after 24 hr by filter paper assay
Dendroctonus ponderosae [3] = experiment: Insecticidal activity against adult female Dendroctonus ponderosae assessed as mortality applied topically to ventral surface of insect mesothorax after 24 hr
Dendroctonus ponderosae [4] = experiment: Insecticidal activity against adult Dendroctonus ponderosae assessed as mortality applied topically on the ventral surface of insect mesothorax after 12 hr; settings: topical
Dendroctonus ponderosae [5] = experiment: Insecticidal activity against adult male Dendroctonus ponderosae assessed as mortality applied topically to ventral surface of insect mesothorax after 24 hr
Dendroctonus ponderosae [6] = experiment: Insecticidal activity against adult Dendroctonus ponderosae assessed as mortality applied topically to ventral surface of insect mesothorax after 24 hr
Dendroctonus ponderosae [7] = experiment: Insecticidal activity against adult Dendroctonus ponderosae assessed as mortality after 24 hr by filter paper assay
Dendroctonus ponderosae [8] = experiment: Insecticidal activity against adult Dendroctonus ponderosae assessed as mortality after 12 hr by filter paper assay
[9] = Dendroctonus ponderosae, 24 h, read-out: LC50
[10] = Dendroctonus ponderosae, topical, 24 h, read-out: LC50

| Compound | LC50 (Dendroctonus ponderosae [1]) | LC50 (Dendroctonus ponderosae [2]; [9]) | LC50 (Dendroctonus ponderosae [3]; [10]) | LC50 (Dendroctonus ponderosae [4]) | LC50 (Dendroctonus ponderosae [5]; [10]) | LC50 (Dendroctonus ponderosae [6]; [10]) | LC50 (Dendroctonus ponderosae [7]; [9]) | LC50 (Dendroctonus ponderosae [8]) | LC50 (Dendroctonus ponderosae [2]) | LC50 (Dendroctonus ponderosae [3]) | LC50 (Dendroctonus ponderosae [5]) | LC50 (Dendroctonus ponderosae [6]) | LC50 (Dendroctonus ponderosae [7]) | LC50 (Dendroctonus ponderosae [8]; Dendroctonus ponderosae, 12 h, read-out: LC50) |
| --- | --- | --- | --- | --- | --- | --- | --- | --- | --- | --- | --- | --- | --- | --- |
| CNC(=O)c1cc(Cl)cc(C)c1NC(=O)c1cc(Br)nn1-c1ncccc1Cl [CHLORANTRANILIPROLE] | 72.7 µg/mL (≈ 150 µM) | 11 µg/mL (≈ 22.8 µM) | 1110 µg/mL (≈ 2300 µM) | 6300 µg/mL (≈ 13000 µM) | 1750 µg/mL (≈ 3620 µM) | 1380 µg/mL (≈ 2870 µM) | 34.9 µg/mL (≈ 72.2 µM) | inactive | – | – | – | – | – | – |
| CNC(=O)c1cc(C#N)cc(C)c1NC(=O)c1cc(Br)nn1-c1ncccc1Cl [CYANTRANILIPROLE] | – | 3.4 µg/mL (≈ 7.18 µM) | 258 µg/mL (≈ 544 µM) | – | – | 271 µg/mL (≈ 571 µM) | – | 46.1 mg/L (≈ 97.3 µM) | 1.7 µg/mL (≈ 3.59 µM) | 164.8 µg/mL (≈ 348 µM) | 301.5 µg/mL and 102 µg/mL | 141.5 µg/mL (≈ 299 µM) | 3 µg/mL and 6.2 µg/mL | 56.8 mg/L (≈ 120 µM) |
